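Interpolation was linear, between the two tested concentrations surrounding the appropriate level; five concentrations were tested over 48 hours in 96-well plates. The concentration for 50% growth inhibition is given as GI50. Definition used: TGI = concentration required for complete inhibition of growth.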
Legend:
Assay in all cases: inhibition of tumour cell growth, NCI panel, 48 h
A549 NSCLC = tested on: A549 NSCLC
ACHN renal = tested on: ACHN renal
SK-MEL-28 melanoma = tested on: SK-MEL-28 melanoma
SR leukemia = tested on: SR leukemia
SF-539 CNS = tested on: SF-539 CNS
MCF7 breast = tested on: MCF7 breast
HL-60(TB) leukemia = tested on: HL-60(TB) leukemia
SK-MEL-5 melanoma = tested on: SK-MEL-5 melanoma
NCI-H23 lung = tested on: NCI-H23 lung
OVCAR-3 ovarian = tested on: OVCAR-3 ovarian

CCCOC(=O)N1CCN(/[N+]([O-])=N/Oc2ccc([N+](=O)[O-])cc2[N+](=O)[O-])CC1
GI50 (A549 NSCLC): 3850 nM | TGI (A549 NSCLC): 22400 nM | GI50 (ACHN renal): 1840 nM | TGI (ACHN renal): 3790 nM | GI50 (SK-MEL-28 melanoma): 6040 nM | TGI (SK-MEL-28 melanoma): 39400 nM | GI50 (SR leukemia): 373 nM | TGI (SR leukemia): > 100000 nM | GI50 (SF-539 CNS): 273 nM | TGI (SF-539 CNS): 648 nM | GI50 (MCF7 breast): 446 nM | TGI (MCF7 breast): 2230 nM | GI50 (HL-60(TB) leukemia): 727 nM | TGI (HL-60(TB) leukemia): 8150 nM | GI50 (SK-MEL-5 melanoma): 2350 nM | TGI (SK-MEL-5 melanoma): 7530 nM | GI50 (NCI-H23 lung): 2250 nM | TGI (NCI-H23 lung): 5340 nM | GI50 (OVCAR-3 ovarian): 2290 nM | TGI (OVCAR-3 ovarian): 4480 nM

O=C(COc1ccc(/C=C2\Oc3ccccc3C2=O)cc1)Nc1nc2c(s1)CCCC2
GI50 (A549 NSCLC): 3090 nM | TGI (A549 NSCLC): 33000 nM | GI50 (ACHN renal): 17400 nM | TGI (ACHN renal): > 100000 nM | GI50 (SK-MEL-28 melanoma): 27800 nM | TGI (SK-MEL-28 melanoma): > 68700 nM | GI50 (SR leukemia): 590 nM | TGI (SR leukemia): 2440 nM | GI50 (SF-539 CNS): 622 nM | TGI (SF-539 CNS): 1400 nM | GI50 (MCF7 breast): 15800 nM | TGI (MCF7 breast): > 100000 nM | GI50 (HL-60(TB) leukemia): 424 nM | TGI (HL-60(TB) leukemia): 1310 nM | GI50 (SK-MEL-5 melanoma): 17400 nM | TGI (SK-MEL-5 melanoma): > 57500 nM | GI50 (NCI-H23 lung): 11900 nM | TGI (NCI-H23 lung): > 100000 nM | GI50 (OVCAR-3 ovarian): 1830 nM | TGI (OVCAR-3 ovarian): 25500 nM

CC1(C)[C@@H](OC(N)=O)[C@H]2O[C@H]2[C@]2(CO)[C@H]3CC[C@]4(C)[C@@H](c5ccc(=O)oc5)[C@@H](Cl)C[C@]4(O)C3=CC[C@@H]12
GI50 (A549 NSCLC): 4.69 nM | TGI (A549 NSCLC): 8.8 nM | GI50 (ACHN renal): 5.15 nM | TGI (ACHN renal): 11.8 nM | GI50 (SK-MEL-28 melanoma): 16 nM | TGI (SK-MEL-28 melanoma): 90.2 nM | GI50 (SR leukemia): 6.81 nM | TGI (SR leukemia): 19.5 nM | GI50 (SF-539 CNS): 4.53 nM | TGI (SF-539 CNS): 9.51 nM | GI50 (MCF7 breast): 7.45 nM | TGI (MCF7 breast): 51.2 nM | GI50 (HL-60(TB) leukemia): 6.09 nM | TGI (HL-60(TB) leukemia): 14 nM | GI50 (SK-MEL-5 melanoma): 6.81 nM | TGI (SK-MEL-5 melanoma): 19.5 nM | GI50 (NCI-H23 lung): 5.52 nM | TGI (NCI-H23 lung): 15.2 nM | GI50 (OVCAR-3 ovarian): 6.18 nM | TGI (OVCAR-3 ovarian): 14 nM

COc1cc(C(=O)NC2CCN(C)CC2)c(F)cc1Nc1ncc2c(n1)N(C1CCCC1)CC(F)(F)C(=O)N2C
GI50 (A549 NSCLC): < 18.4 nM | TGI (A549 NSCLC): 2310 nM | GI50 (ACHN renal): < 37.8 nM | TGI (ACHN renal): 14400 nM | GI50 (SK-MEL-28 melanoma): < 20.9 nM | TGI (SK-MEL-28 melanoma): 16200 nM | GI50 (SR leukemia): < 10 nM | GI50 (SF-539 CNS): < 18.1 nM | TGI (SF-539 CNS): 1300 nM | GI50 (MCF7 breast): < 10 nM | TGI (MCF7 breast): 11900 nM | GI50 (HL-60(TB) leukemia): < 10 nM | TGI (HL-60(TB) leukemia): < 19.7 nM | GI50 (SK-MEL-5 melanoma): < 22 nM | TGI (SK-MEL-5 melanoma): 2320 nM | GI50 (NCI-H23 lung): < 18.2 nM | TGI (NCI-H23 lung): 3400 nM | GI50 (OVCAR-3 ovarian): < 15.5 nM | TGI (OVCAR-3 ovarian): 5870 nM

O=C(Nc1ccc(Cl)c(Cl)c1)O/N=C\c1c(Cl)ccc([N+](=O)[O-])c1Cl
GI50 (A549 NSCLC): 2960 nM | TGI (A549 NSCLC): 10300 nM | GI50 (ACHN renal): 1650 nM | TGI (ACHN renal): 3330 nM | GI50 (SK-MEL-28 melanoma): 2100 nM | TGI (SK-MEL-28 melanoma): 4220 nM | GI50 (SR leukemia): 878 nM | TGI (SR leukemia): 5040 nM | GI50 (SF-539 CNS): 2640 nM | TGI (SF-539 CNS): 8360 nM | GI50 (MCF7 breast): 404 nM | TGI (MCF7 breast): 2000 nM | GI50 (HL-60(TB) leukemia): 1180 nM | TGI (HL-60(TB) leukemia): 3130 nM | GI50 (SK-MEL-5 melanoma): 2380 nM | TGI (SK-MEL-5 melanoma): 8590 nM | GI50 (NCI-H23 lung): 2950 nM | TGI (NCI-H23 lung): 9700 nM | GI50 (OVCAR-3 ovarian): 1310 nM | TGI (OVCAR-3 ovarian): 2760 nM

O=C(/C=C/c1ccc([N+](=O)[O-])cc1)c1ccc2c3c(cccc13)CC2
GI50 (A549 NSCLC): 10300 nM | TGI (A549 NSCLC): > 100000 nM | GI50 (ACHN renal): 47900 nM | TGI (ACHN renal): > 100000 nM | GI50 (SK-MEL-28 melanoma): 18200 nM | TGI (SK-MEL-28 melanoma): 58900 nM | GI50 (SR leukemia): 2020 nM | TGI (SR leukemia): 24900 nM | GI50 (SF-539 CNS): 2630 nM | TGI (SF-539 CNS): 7720 nM | GI50 (MCF7 breast): 2700 nM | TGI (MCF7 breast): > 25400 nM | GI50 (HL-60(TB) leukemia): 4510 nM | TGI (HL-60(TB) leukemia): 29000 nM | GI50 (SK-MEL-5 melanoma): 33200 nM | TGI (SK-MEL-5 melanoma): > 100000 nM | GI50 (NCI-H23 lung): 29100 nM | TGI (NCI-H23 lung): > 100000 nM | GI50 (OVCAR-3 ovarian): 3000 nM | TGI (OVCAR-3 ovarian): 10100 nM
